From ChEMBL document CHEMBL1201862, “PubChem BioAssay data set” (2004)
Activity calls are given as the source filed them.

Tests used:
Vero = assay: mammalian cell viability reduction – secondary assay, cytotoxicity control for West Nile virus antiviral project, dose response (AID 1650); assay type: functional; conditions: Chlorocebus sabaeus
INS1 = assay: INS-1E survival protection against cytokine death – cell-based, luminescence, retest, dose response (AID 449756); assay type: functional; conditions: Rattus norvegicus;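 also: cell death triggered by IL-1 beta plus TNF-alpha plus IFN-gamma mixture; protective hits raise ATP signal compared with cytokine alone wells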
[1] = Luminescence Cell-Based Dose Confirmation HTS to Identify Inhibitors of Platelet Dense Granule Release. [Related pubchem assays: 1663 (Primary HTS), 1678 (Summary of Project)]; assay type: functional
[2] = molecular target: Luciferin 4-monooxygenase (Photinus pyralis, UniProt P08659); assay: inhibition of purified Photinus pyralis luciferase – biochemical, luminescence, dose response (AID 1891)
[3] = Fluorescence Cell-Based Dose Response to Identify Inhibitors of Thrombin Receptor-Activating Peptide SFLLRN-Mediated P-Selectin Induction on Platelets. [Related pubchem assays: 1663 (Primary HTS), 1889 (retest at dose ), 1891 (counterscreen), 1678 (Project Summary)]; assay type: functional
[4] = molecular target: T1, Disintegrin and metalloproteinase domain-containing protein 17 (Homo sapiens, UniProt P78536); assay: exosite inhibitors of ADAM17, dose response, biochemical (AID 743260)
[5] = NIH3T3 cell viability loss – ATP luminescence, mouse fibroblasts, counter-screen, dose response (AID 2010); assay type: functional, cell-based;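 also: cells exposed to compound for about 90 hours before reading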
[6] = Trypanosoma cruzi growth suppression in host cells – NIH3T3 host cells, beta-gal luminescence, confirmation (AID 2044); assay type: functional, cell-based;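 also: intracellular parasites grown in NIH/3T3 mouse fibroblasts as host cells; luminescent beta-galactosidase reporter signal from transgenic T. cruzi replicating inside host cells; inhibitors lower the luminescence signal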
[7] = inhibition of ADAM10 peptide cleavage – biochemical, FRET peptide substrate, recombinant human ADAM10, selectivity assay for ADAM17 exosite inhibitor project, dose response (AID 743259);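 also: ADAM10 enzyme cleaving a FRET peptide substrate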
[8] = molecular target: E3 ubiquitin-protein ligase Mdm2 (Homo sapiens, UniProt Q00987); assay: MDM2-luc reporter signal enhancers, multi-concentration potency testing, MDM2 ubiquitin-protein ligase inhibitor program, whole-cell format, luminescence detection, 384-well microplate (AID 1394); assay type: functional;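 also: MDM2 E3 inhibitors raise luminescence so EC50 is for signal enhancement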
BJ = assay: growth inhibition of engineered Ras-driven BJ cells – cell-based, alamar blue fluorescence, cherrypicked samples, dose response (AID 2631); assay type: functional; conditions: Homo sapiens;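 also: confirmatory dose-response assay in RAS-dependent BJ fibroblasts engineered with TERT, LT and ST, with cytotoxicity read by fluorescence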
Ephrin type-A receptor 4 = Ephrin type-A receptor 4 (Mus musculus, UniProt Q03137); assay: EphA4 ligand-binding antagonists – biochemical, colorimetric, mouse EphA4, primary screen (AID 689); assay type: functional
[9] = M. tuberculosis H37Rv growth inhibitors, H37Rv strain (AID 1626); assay type: functional
[10] = molecular target: T1, Disintegrin and metalloproteinase domain-containing protein 17; assay: inhibition of ADAM17 substrate cleavage – biochemical, quenched FRET substrate, counter-screen for ADAM10 exosite inhibitor project, dose response (AID 743253)
[11] = loss of viability in HepG2 cells – cell-based, CellTiter-Glo, cherry-picked, cytotoxicity control for Shn3 inhibitor project, dose response (AID 624134); assay type: functional
[12] = reduction of Shn3 3'UTR-driven luciferase in osteoblasts – cell-based, Clone20 osteoblasts, firefly luciferase, cherry-picked, dose response (AID 624132); assay type: functional;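 also: firefly luciferase luminescence from reporter carrying the Shn3 3'UTR in osteoblasts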
[13] = potency of ADAM10 substrate cleavage blockers – biochemical, QFRET, dose response (AID 743254);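 also: ADAM10 enzyme with the DM2 quenched FRET peptide as substrate; EDANS fluorescence gain as the protease cuts the substrate; inhibitor potency against ADAM10 proteolytic activity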
[14] = non-specific 3'UTR reporter inhibition in Clone20-Shn3RL – cell-based, Renilla luciferase, cherry-picked, counter-screen for Shn3 inhibitor project, dose response (AID 624133); assay type: functional
[15] = general cell-killing toxicity readout – plate reader, dry powder samples, cytotoxicity control for PAX8 inhibitor project, dose response (AID 743021); assay type: functional, cell-based
[16] = reduced cellular PGC1a acetyl-lysine signal – cell-based, cherry-picked samples, dose response (AID 720514); assay type: functional;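 also: potency may reflect raised or lowered acetylation signal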
[17] = viability loss in THP-1 monocytes – THP-1 cells, cytotoxicity control for Vif-APOBEC3G degradation inhibitor project, dose response (AID 1117359); assay type: functional; conditions: THP-1
[18] = P. falciparum Dd2 growth inhibitors, dose response, SYBR Green, cherry-picked samples (AID 1159567); assay type: functional, cell-based
[19] = toxicity to human HepG2 hepatoma cells – cell-based, plate reader, dry powder samples, cytotoxicity control, dose response (AID 1159569); assay type: functional;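 also: inhibitor potency with signal falling toward the positive control level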
[20] = growth inhibition of PfATP4-mutant resistant parasites – NITD609-resistant line, SYBR Green, dry powder, dose response (AID 1159571); assay type: functional, cell-based;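 also: parasites synchronized at ring stage by sorbitol before testing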
[21] = growth inhibition of yeast DHODH-expressing 3D7 parasites – SYBR Green, dry powder samples, dose response (AID 1159570); assay type: functional, cell-based;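 also: parasite growth measured after 72 hours of compound exposure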
[22] = Dd2 malaria parasite growth inhibition potency – SYBR Green, dry powder samples, dose response (AID 1159566); assay type: functional, cell-based;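 also: potency for growth inhibition with lower SYBR green DNA signal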
[23] = toxicity to human hepatoma HepG2 cells – cell-based, cherry-picked samples, cytotoxicity control, dose response (AID 1159577); assay type: functional

T1 sequence (P78536 whole entry, the tested form may be a part): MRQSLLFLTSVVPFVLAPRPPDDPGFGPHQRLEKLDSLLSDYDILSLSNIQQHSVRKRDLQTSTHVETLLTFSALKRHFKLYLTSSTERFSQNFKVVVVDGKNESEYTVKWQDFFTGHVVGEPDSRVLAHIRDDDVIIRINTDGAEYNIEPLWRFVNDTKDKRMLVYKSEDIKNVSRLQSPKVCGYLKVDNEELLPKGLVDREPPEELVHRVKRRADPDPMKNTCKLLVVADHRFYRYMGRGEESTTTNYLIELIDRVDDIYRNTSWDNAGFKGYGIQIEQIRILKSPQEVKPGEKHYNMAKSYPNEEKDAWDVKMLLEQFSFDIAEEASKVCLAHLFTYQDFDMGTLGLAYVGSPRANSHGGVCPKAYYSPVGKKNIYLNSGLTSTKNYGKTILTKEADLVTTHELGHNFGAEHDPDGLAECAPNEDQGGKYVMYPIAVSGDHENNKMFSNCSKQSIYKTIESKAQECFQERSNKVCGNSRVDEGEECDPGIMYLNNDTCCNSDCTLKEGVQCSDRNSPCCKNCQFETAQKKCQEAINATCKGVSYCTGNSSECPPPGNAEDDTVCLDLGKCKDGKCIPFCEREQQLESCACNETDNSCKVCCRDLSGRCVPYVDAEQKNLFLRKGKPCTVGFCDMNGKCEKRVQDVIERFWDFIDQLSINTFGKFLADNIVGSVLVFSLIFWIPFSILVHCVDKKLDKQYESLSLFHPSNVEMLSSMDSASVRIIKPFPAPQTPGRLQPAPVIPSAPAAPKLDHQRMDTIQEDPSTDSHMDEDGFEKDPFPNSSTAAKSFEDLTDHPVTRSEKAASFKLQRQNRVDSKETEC
Ephrin type-A receptor 4, sequence (Q03137 whole entry): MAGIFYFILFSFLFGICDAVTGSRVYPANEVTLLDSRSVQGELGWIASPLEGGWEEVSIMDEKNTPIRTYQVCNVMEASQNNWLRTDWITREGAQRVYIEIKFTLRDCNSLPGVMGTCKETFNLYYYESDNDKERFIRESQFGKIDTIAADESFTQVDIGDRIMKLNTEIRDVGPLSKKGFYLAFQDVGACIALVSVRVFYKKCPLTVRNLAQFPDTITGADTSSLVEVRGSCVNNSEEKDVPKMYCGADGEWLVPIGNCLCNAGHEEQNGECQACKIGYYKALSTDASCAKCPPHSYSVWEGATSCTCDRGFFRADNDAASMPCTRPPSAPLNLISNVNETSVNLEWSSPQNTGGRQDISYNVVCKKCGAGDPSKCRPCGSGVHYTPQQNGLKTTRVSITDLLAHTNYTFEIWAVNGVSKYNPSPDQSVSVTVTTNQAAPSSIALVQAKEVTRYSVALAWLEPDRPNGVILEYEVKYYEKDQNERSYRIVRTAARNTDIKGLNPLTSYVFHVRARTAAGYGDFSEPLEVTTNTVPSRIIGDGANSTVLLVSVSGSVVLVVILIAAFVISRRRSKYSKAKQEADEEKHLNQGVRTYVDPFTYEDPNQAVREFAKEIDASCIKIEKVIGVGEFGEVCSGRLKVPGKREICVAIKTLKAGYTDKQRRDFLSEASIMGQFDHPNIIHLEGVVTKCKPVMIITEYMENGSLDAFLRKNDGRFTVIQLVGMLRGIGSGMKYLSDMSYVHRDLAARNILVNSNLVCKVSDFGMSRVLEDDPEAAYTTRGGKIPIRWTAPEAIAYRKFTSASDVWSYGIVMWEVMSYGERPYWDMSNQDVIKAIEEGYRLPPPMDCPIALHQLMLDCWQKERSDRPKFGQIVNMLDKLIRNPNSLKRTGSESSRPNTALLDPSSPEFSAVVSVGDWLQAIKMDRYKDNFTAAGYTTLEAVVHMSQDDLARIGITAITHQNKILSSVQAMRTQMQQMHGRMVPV
E3 ubiquitin-protein ligase Mdm2, sequence (Q00987 whole entry): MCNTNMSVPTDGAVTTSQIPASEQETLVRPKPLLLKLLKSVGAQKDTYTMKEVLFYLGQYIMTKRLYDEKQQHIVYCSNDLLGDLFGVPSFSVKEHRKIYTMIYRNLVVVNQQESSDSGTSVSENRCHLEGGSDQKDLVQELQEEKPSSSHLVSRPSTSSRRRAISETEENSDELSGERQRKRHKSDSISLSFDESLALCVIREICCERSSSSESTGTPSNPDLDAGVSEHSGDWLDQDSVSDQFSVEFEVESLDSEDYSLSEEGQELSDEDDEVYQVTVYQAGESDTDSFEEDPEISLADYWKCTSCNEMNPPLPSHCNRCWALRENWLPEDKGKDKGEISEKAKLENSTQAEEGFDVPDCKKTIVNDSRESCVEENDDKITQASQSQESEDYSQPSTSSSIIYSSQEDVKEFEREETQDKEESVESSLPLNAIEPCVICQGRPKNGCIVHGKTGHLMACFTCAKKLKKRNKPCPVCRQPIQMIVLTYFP
Luciferin 4-monooxygenase, sequence (P08659 whole entry): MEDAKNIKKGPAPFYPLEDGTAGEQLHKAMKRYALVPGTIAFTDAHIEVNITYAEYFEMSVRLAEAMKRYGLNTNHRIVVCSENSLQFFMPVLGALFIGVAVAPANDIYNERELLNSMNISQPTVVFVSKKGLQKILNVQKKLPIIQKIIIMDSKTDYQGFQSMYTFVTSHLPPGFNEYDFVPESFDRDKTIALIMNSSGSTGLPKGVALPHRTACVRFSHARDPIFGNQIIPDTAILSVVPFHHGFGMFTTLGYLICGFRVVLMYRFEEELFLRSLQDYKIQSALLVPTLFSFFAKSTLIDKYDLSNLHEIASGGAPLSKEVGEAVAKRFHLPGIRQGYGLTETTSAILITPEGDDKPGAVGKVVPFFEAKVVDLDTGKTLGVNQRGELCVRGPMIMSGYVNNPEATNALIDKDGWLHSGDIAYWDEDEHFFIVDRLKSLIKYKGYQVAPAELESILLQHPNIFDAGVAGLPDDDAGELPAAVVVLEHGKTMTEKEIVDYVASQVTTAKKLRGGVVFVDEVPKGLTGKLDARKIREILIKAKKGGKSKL

With Cn1c(=O)[nH]c(=O)c2c1nc(N1CCN(C(c3ccccc3)c3ccccc3)CC1)n2CCO the CC50 (Vero) was 14.5 µM (active) and the AC50 (INS1) was 6.24 µM (active).

In the case of COc1ccccc1-n1cc(-c2ccc(Cl)cc2)nc1O, the EC50 [1] was 1.89 µM (active), the EC50 [2] was > 112 µM (not active) and the EC50 [3] was < 300 nM (active).

For CCCn1c(SCC(=O)N2c3ccccc3Sc3ccccc32)nc2ccccc21, the IC50 [4] was > 69.5 µM (inactive), the EC50 [5] was > 60 µM (not active) and the EC50 [6] was 2.9 µM (active). For the same molecule, the IC50 [7] was 19.7 µM (inactive).

In the case of CCc1c(C)c(C#N)c2nc3ccccc3n2c1Cl, the EC50 [8] was 9.98 µM (not active) and the EC50 (BJ) was 443 nM (inconclusive).

With COc1cccc(C2(CSc3nnc(-c4cc(OC)c(OC)c(OC)c4)o3)OCCO2)c1 the IC50 (Ephrin type-A receptor 4) was > 100 µM (not active).

In the case of CC(=O)Nc1ccc(NC(=O)c2ccc(C3SCC(=O)N3CCc3ccccc3)cc2)cc1 (configuration not stated), the IC50 [9] was > 100 µM (active).

In the case of C=CCC[C@H](Cc1ccc(F)cc1)C(=O)OC[C@H](Cc1c[nH]c2ccccc12)NC(=O)[C@@H](CC=C)CC(=O)N[C@H](CO)Cc1ccccc1, the IC50 [4] was > 69.5 µM (inactive), the IC50 [10] was > 69.5 µM (inactive) and the AC50 [11] was 17 µM (active). The AC50 [12] was 4.44 µM (active), the IC50 [13] was > 69.5 µM (inactive) and the AC50 [14] was 15.8 µM (active). For the same molecule, the IC50 [7] was 58.9 µM (inactive).

With Oc1nc2ccccc2n1C1CCN(C(c2ccccc2OC(F)(F)F)c2nnnn2-c2ccc3c(c2)OCCO3)CC1 (configuration not stated) the IC50 [13] was > 69.5 µM (inactive) and the AC50 [15] was 37.1 µM (active).

For C[C@H](CO)N1C[C@H](C)[C@@H](CN(C)Cc2cccnc2)Oc2cc(C#CC3CCCCC3)ccc2S1(=O)=O, the AC50 [16] was 6.45 µM (active).

For CCOC(=O)C1=C(C)N=c2s/c(=C/c3ccco3)c(=O)n2C1c1cccc(OC)c1 (configuration not stated), the IC50 (Ephrin type-A receptor 4) was > 100 µM (not active) and the CC50 [17] was > 40 µM (active).

For COCc1cn([C@@H]2C[C@@H]3O[C@@H](CO)CC[C@@H]3O[C@@H]2CCc2ccc(-c3ccc(OC)cc3)cc2)nn1, the AC50 [18] was 1.12 µM (active), the AC50 [19] was 43 µM (active) and the AC50 [20] was 451 nM (active). The AC50 [21] was 231 nM (active) and the AC50 [22] was 362 nM (active).

For C[C@H](CO)N1C[C@H](C)[C@@H](CN(C)C(=O)c2ccc(F)cc2)Oc2ncc(/C=C/c3ccccc3)cc2C1=O, the AC50 [18] was 1.63 µM (active), the AC50 [19] was 85.2 µM (active) and the AC50 [20] was 1650 nM (active). The AC50 [21] was 2680 nM (active) and the AC50 [22] was 1580 nM (active).

In the case of O=S(=O)(c1ccc(-c2ccccc2)cc1)N1C[C@@H]2N[C@H](C1)[C@@H]2c1ccc(-c2ccccc2)cc1, the AC50 [18] was 2.86 µM (active) and the AC50 [23] was 16 µM (active).
